According to ChEMBL document CHEMBL1130841, “Evaluation of phosphorus-containing inhibitors of gamma-glutamyl hydrolase” (Bioorg Med Chem Lett, 1998):

Tests used:
[1] = Dissociation constant was evaluated.; assay type: physicochemical
[2] = target: T1, Gamma-glutamyl hydrolase (Homo sapiens, UniProt Q92820); experiment: Compound was tested for inhibitory potency against gamma-Glutamyl Hydrolase.
T1 sequence (Q92820 whole entry): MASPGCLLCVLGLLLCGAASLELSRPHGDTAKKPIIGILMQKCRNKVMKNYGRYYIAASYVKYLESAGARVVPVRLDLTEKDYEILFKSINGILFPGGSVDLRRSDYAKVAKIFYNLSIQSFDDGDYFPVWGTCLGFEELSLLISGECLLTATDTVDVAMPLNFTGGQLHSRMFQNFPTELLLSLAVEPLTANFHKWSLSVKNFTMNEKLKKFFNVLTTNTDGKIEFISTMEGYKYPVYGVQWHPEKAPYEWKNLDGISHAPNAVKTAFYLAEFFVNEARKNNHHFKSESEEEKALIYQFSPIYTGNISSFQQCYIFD

[3] = Phosphorylation rate constant was evaluated.; assay type: ADME

Structure (SMILES) | Kd [1] | Ki [2] | kp [3]
COP(=O)(N[C@@H](CCC(=O)O)C(=O)O)c1ccccc1 (some centres not stated) | 27.4 M⁻¹ | 0.264 M⁻¹ | 7.24 min⁻¹
COP(=O)(N[C@@H](CCC(=O)O)C(=O)O)OC | 0.223 M⁻¹ | 10.9 M⁻¹ | 2.42 min⁻¹
O=C(O)CC[C@H](NP(=O)(O)c1ccccc1)C(=O)O | – | 950 pM | –
